Assay results published in US20250340574A1, “MODULATORS OF CYSTIC FIBROSIS TRANSMEMBRANE CONDUCTANCE REGULATOR” (Vertex Pharmaceuticals Incorporated, priority 2022, published 2025).
Read-outs that look alike come from different tables or passages of the source.

What was measured:
[1] = molecular target: T1, CFTR (F508del/MF-HBE cells) (Homo sapiens, UniProt P13569, DEL508-508); experiment: Ussing chamber assay of CFTR-mediated short-circuit currents, Assay D (single concentration of 1 μM); type: cell-based; details: with 44 nM potentiator and 18 μM Tezacaftor, 20% human serum; for D activity at 1 μM (%): 18-24 hours
T1 construct: human bronchial epithelial (HBE) cells derived from CF subjects heterozygous for F508del and a minimal function CFTR mutation (F508del/MF-HBE); endogenous in cells; host or cells: Primary human bronchial epithelial cells from CF subjects (F508del/MF genotype), differentiated at an air-liquid interface
Method: Ussing chamber experiments were performed using human bronchial epithelial (HBE) cells derived from CF subjects heterozygous for F508del and a minimal function CFTR mutation (F508del/MF-HBE) and cultured as previously described (Neuberger T, Burton B, Clark H, Van Goor F Methods Mol Biol 2011:741:39-54). After four days the apical media was removed, and the cells were grown at an air liquid interface for >14 days prior to use.
To isolate the CFTR-mediated short-circuit (ISC) current, F508del/MF-HBE grown on Costar® Snapwell™ cell culture inserts were mounted in an Ussing chamber and the transepithelial ISC was measured under voltage-clamp recording conditions (Vhold=0 mV) at 37° C. The basolateral solution contained (in mM) 145 NaCl, 0.83 K2HPO4, 3.3 KH2PO4, 1.2 MgCl2, 1.2 CaCl2, 10 Glucose, 10 HEPES (pH adjusted to 7.4 with NaOH) and the apical solution contained (in mM) 145 NaGluconate, 1.2 MgCl2, 1.2 CaCl2, 10 glucose, 10 HEPES (pH adjusted to 7.4 with NaOH) and 30 μM amiloride to block the epithelial sodium channel. Forskolin (20 μM) was added to the apical surface to activate CFTR, followed by apical addition of a CFTR inhibitor cocktail consisting of BPO, GlyH-101, and CFTR inhibitor 172 (each at 20 μM final assay concentration) to specifically isolate CFTR currents. The CFTR-mediated ISC (μA/cm^2) for each condition was determined from the peak forskolin response to the steady-state current following inhibition.
The activity of the CFTR corrector compounds on the CFTR-mediated ISC was determined in Ussing chamber studies as described above. The F508del/MF-HBE cell cultures were either incubated with the corrector compounds at a range of concentrations in combination with 33 nM (6R,12R)-17-amino-12-methyl-6,15-bis(trifluoromethyl)-13,19-dioxa-3,4,18-triazatricyclo[12.3.1.12,5]nonadeca-1(18),2,4,14,16-pentaen-6-ol and 18 μM Tezacaftor or were incubated with the corrector compounds at a single fixed concentration of 1 μM in combination with 44 nM (6R,12R)-17-amino-12-methyl-6,15-bis(trifluoromethyl)-13,19-dioxa-3,4,18-triazatricyclo[12.3.1.12,5]nonadeca-1(18),2,4,14,16-pentaen-6-ol and 18 μM Tezacaftor for 18-24 hours at 37° C. and in the presence of 20% human serum. The concentration of corrector compounds with 44 nM or 33 nM (6R,12R)-17-amino-12-methyl-6,15-bis(trifluoromethyl)-13,19-dioxa-3,4,18-triazatricyclo[12.3.1.12,5]nonadeca-1(18),2,4,14,16-pentaen-6-ol and 18 μM Tezacaftor during the 18-24 hours incubations was kept constant throughout the Ussing chamber measurement of the CFTR-mediated ISC to ensure compounds were present throughout the entire experiment. The efficacy and potency of the putative F508del correctors was compared to that of the known Vertex corrector, (14S)-8-[3-(2-{Dispiro[2.0.2.1]heptan-7-yl}ethoxy)-1H-pyrazol-1-yl]-12,12-dimethyl-2λ^6-thia-3,9,11,18,23-pentaazatetracyclo[17.3.1.111,14.05,10]tetracosa-1(22),5,7,9,19(23),20-hexaene-2,2,4-trione, in combination with 18 μM Tezacaftor and 1 μM Ivacaftor.
• Assay A: 0.1 μM to 25 μM, 6 concentrations • Assay B: 0.00001 μM to 25 μM, 12 concentrations • Assay C: 0.026 μM to 25 μM, 6 concentrations • Assay D: Activity at single concentration of 1 μM

[2] = molecular target: T1, CFTR (F508del/MF-HBE cells); experiment: Ussing chamber assay of CFTR-mediated short-circuit currents, Assay C (0.026 μM to 25 μM, 6 concentrations); type: cell-based; details: with 33 nM potentiator and 18 μM Tezacaftor, 20% human serum; for Emax: read-out: C Max activity (%)
Method in brief: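 Short-circuit current was recorded at 37 °C under voltage clamp (0 mV) with amiloride 30 μM apically, forskolin 20 μM activation, then BPO/GlyH-101/inh-172 (20 μM each) to isolate CFTR current. Before recording, corrector exposure lasted 18–24 h with 18 μM tezacaftor, 20% human serum, and 33 nM (dose–response) or 44 nM (1 μM fixed) potentiator, maintained throughout.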

T1 sequence (P13569 with tags, fused parts or gaps DEL508-508): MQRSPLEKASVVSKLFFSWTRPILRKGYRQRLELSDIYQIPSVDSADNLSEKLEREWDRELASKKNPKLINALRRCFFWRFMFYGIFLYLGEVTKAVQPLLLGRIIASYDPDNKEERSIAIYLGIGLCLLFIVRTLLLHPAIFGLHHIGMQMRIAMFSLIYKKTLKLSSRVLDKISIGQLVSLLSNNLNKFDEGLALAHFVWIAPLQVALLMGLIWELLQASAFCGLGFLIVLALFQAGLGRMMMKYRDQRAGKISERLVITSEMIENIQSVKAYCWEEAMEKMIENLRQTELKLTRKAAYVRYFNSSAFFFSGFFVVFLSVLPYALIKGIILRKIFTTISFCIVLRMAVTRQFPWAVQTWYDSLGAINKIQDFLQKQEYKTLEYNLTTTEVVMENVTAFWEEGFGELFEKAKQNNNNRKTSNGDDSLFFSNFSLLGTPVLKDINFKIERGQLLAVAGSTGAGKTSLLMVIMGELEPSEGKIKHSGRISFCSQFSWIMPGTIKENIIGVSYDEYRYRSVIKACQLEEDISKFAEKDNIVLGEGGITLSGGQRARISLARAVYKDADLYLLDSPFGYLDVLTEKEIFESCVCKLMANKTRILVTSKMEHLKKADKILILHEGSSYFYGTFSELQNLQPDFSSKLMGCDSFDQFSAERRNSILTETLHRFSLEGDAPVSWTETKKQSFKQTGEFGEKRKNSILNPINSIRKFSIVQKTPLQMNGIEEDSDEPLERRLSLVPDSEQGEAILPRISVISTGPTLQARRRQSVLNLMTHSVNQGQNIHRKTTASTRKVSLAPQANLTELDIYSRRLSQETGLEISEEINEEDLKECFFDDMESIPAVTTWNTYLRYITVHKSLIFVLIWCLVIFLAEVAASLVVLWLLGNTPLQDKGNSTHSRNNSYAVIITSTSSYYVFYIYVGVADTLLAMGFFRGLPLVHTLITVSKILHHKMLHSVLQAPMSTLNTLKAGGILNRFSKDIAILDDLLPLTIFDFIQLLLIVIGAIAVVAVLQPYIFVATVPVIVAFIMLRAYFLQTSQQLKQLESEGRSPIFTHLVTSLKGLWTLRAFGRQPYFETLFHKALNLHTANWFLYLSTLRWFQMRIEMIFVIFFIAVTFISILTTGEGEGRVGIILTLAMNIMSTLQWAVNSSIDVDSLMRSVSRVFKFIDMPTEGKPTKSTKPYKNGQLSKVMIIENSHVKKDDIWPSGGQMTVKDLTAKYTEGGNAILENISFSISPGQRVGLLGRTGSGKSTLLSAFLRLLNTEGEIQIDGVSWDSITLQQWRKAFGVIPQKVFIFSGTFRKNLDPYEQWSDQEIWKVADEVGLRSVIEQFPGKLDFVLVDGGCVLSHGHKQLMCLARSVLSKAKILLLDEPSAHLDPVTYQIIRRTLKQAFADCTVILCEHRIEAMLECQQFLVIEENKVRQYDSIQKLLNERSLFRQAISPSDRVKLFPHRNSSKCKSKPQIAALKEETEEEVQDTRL

## Cc1cccc(C)c1-c1cc2nc(n1)NS(=O)(=O)c1cccc(c1)C(=O)N(Cc1cnc3c(n1)C(=O)N(C(C)C)[C@@H]3C)[C@H](CC(C)(C)C)CO2 (stereo in doubt) [III-23]
[1]
  D activity at 1 μM (%): +++ (+++ is >60%)

## Cc1cccc(C)c1-c1cc2nc(n1)NS(=O)(=O)c1cccc(c1)C(=O)N(Cc1cnc3oc(C(C)C)c(N)c3n1)[C@H](CC1(C)CC1)CO2 [Compound I-237, (11R)-12-[(7-Amino-6-isopropyl-furo[2,3-b]pyrazin-2-yl)methyl]-6-(2,6-dimethylphenyl)-11-[(1-methylcyclopropyl)methyl]-2,2-dioxo-9-oxa-2λ^6-thia-3,5,12,19-tetrazatricyclo[12.3.1.14,8]nonadeca-1(18),4(19),5,7,14,16-hexaen-13-one]
[1]
  D activity at 1 μM (%): +++ (+++ is >60%)

## Cc1cccc(C)c1-c1cc2nc(n1)NS(=O)(=O)c1cccc(c1)C(=O)N(Cc1cnc3oc(C(C)C)c(C(F)(F)F)c3n1)[C@H](CC13CC(C1)C3)CO2 [Compound I-114]
[1]
  D activity at 1 μM (%): +++ (+++ is >60%)

## Cc1cccc(CC(C)C)c1-c1nc2nc(c1C)OC[C@@H](CC13CC(C1)C3)N(Cc1cnc3oc(C(C)(C)C)cc3n1)C(=O)c1cccc(c1)S(=O)(=O)N2 [Compound I-248]
[1]
  D activity at 1 μM (%): +++ (+++ is >60%)

## Cc1cccc(C)c1-c1cc2nc(n1)NS(=O)(=O)c1cccc(c1)C(=O)N(Cc1cnc3nn(C(C)C)cc3n1)[C@H](CC(C)(C)C)CO2 [Compound I-169, (11R)-6-(2,6-Dimethylphenyl)-11-(2,2-dimethylpropyl)-12-[(2-isopropylpyrazolo[3,4-b]pyrazin-5-yl)methyl]-2,2-dioxo-9-oxa-2λ^6-thia-3,5,12,19-tetrazatricyclo[12.3.1.14,8]nonadeca-1(18),4(19),5,7,14,16-hexaen-13-one]
[1]
  D activity at 1 μM (%): +++ (+++ is >60%)

## Cc1cccc(C)c1-c1cc2nc(n1)NS(=O)(=O)c1cccc(c1)C(=O)N(Cc1cnc3c(n1)CN(C(C)C)C3=O)[C@@H](CCC1(C)CC1)CO2 (stereo in doubt) [III-19]
[1]
  D activity at 1 μM (%): +++ (+++ is >60%)

## Cc1cccc(C)c1-c1cc2nc(n1)NS(=O)(=O)c1cccc(c1F)C(=O)N(Cc1cnc3cc(C(C)C)n(CCO)c3n1)[C@H](CC1(C)CC1)CO2 [Compound I-215]
[1]
  D activity at 1 μM (%): +++ (+++ is >60%)

## Cc1cccc(C)c1-c1nc2nc(c1C)OC[C@@H](CC1(C)CC1)N(Cc1cnc3cc(C4(C)CC4)n(C)c3n1)C(=O)c1cccc(c1)S(=O)(=O)N2 [Compound I-230]
[1]
  D activity at 1 μM (%): +++ (+++ is >60%)

## Cc1cccc(C)c1-c1cc2nc(n1)NS(=O)(=O)c1cccc(c1)C(=O)N(Cc1cnc3oc(C(C)(C)C)cc3n1)[C@H](CC1CCCC1)CO2 [IV-8]
[1]
  D act. at 1 μM (%): +++ (+++ is >60%)

## Cc1cccc(C)c1-c1cc2nc(n1)NS(=O)(=O)c1cccc(c1)C(=O)N(Cc1cnc3sc(C4CC4)cc3n1)[C@H](CC1(C)CC1)CO2 [IV-41]
[1]
  D act. at 1 μM (%): +++ (+++ is >60%)

## Cc1cccc(OC(C)C)c1-c1nc2nc(c1C)OC[C@@H](CC(C)(C)C)N(Cc1cnc3oc(C(C)(C)C)cc3n1)C(=O)c1cccc(c1)S(=O)(=O)N2 (atropisomer, axis not shown) [Compound I-249]
[2]; 18-24 hours
  Emax: > 60%
[2]
  EC50: 1000 to 3000 nM

## Cc1cccc(CC(C)C)c1-c1nc2nc(c1C)OC[C@@H](CC(C)(C)C)N(Cc1ncc3cc(C4CC4)n(C)c3n1)C(=O)c1cccc(c1)S(=O)(=O)N2 (atropisomer, axis not shown) [IV-25]
[2]
  EC50: 1000 to 3000 nM
  Emax: > 60%

## Cc1cccc(C)c1-c1cc2nc(n1)NS(=O)(=O)c1cccc(c1)C(=O)N(Cc1cnc3oc(C4CC4)cc3n1)[C@H]([C@H](C)OC(C)(C)C)CO2 (stereo in doubt) [IV-80]
[2]
  EC50: 1000 to 3000 nM
  Emax: > 60%

## Cc1cccc(C)c1-c1cc2nc(n1)NS(=O)(=O)c1cccc(c1)C(=O)N(Cc1cnc3cc(C(C)(C)C)n(C)c3n1)[C@@H](CC1CC(F)(F)C1)CO2 (single isomer, unassigned) [IV-55, 12-[(6-tert-Butyl-5-methyl-pyrrolo[2,3-b]pyrazin-3-yl)methyl]-11-[(3,3-difluorocyclobutyl)methyl]-6-(2,6-dimethylphenyl)-2,2-dioxo-9-oxa-2λ^6-thia-3,5,12,19-tetrazatricyclo[12.3.1.14,8]nonadeca-1(18),4(19),5,7,14,16-hexaen-13-one]
[2]
  EC50: < 1000 nM
  Emax: > 60%

## Cc1cccc(C)c1-c1nc2nc(c1C)OC[C@@H](C[C@@H]1CCCO1)N(Cc1cnc3cc(C4(C(F)(F)F)CC4)n(C)c3n1)C(=O)c1cccc(c1)S(=O)(=O)N2 [IV-105]
[2]
  EC50: < 1000 nM
  Emax: > 60%

## Cc1cccc(C)c1-c1cc2nc(n1)NS(=O)(=O)c1cccc(c1)C(=O)N(Cc1cnc3oc(C4CC4)cc3n1)[C@@H](C1(C(C)C)CC1)CO2 (single isomer, unassigned) [IV-61, 12-[(6-cyclopropylfuro[2,3-b]pyrazin-2-yl)methyl]-6-(2,6-dimethylphenyl)-11-(1-isopropylcyclopropyl)-2,2-dioxo-9-oxa-2λ^6-thia-3,5,12,19-tetrazatricyclo[12.3.1.14,8]nonadeca-1(18),4(19),5,7,14,16-hexaen-13-one]
[2]
  EC50: 1000 to 3000 nM
  Emax: > 60%

## Cc1cccc(C)c1-c1cc2nc(n1)NS(=O)(=O)c1cccc(c1)C(=O)N(Cc1cnc3oc(C(C)(C)C)cc3n1)[C@@H](CC1CC(F)(F)C1)CO2 [IV-57]
[2]
  EC50: 3000 to 30000 nM
  Emax: > 60%

## COCCc1c(C(C)(C)C)n(C)c2nc(CN3C(=O)c4cccc(c4)S(=O)(=O)Nc4nc(cc(-c5c(C)cccc5C)n4)OC[C@H]3CC34CC(C3)C4)cnc12 [IV-82, (11R)-11-(1-bicyclo[1.1.1]pentanylmethyl)-12-[[6-tert-butyl-7-(2-methoxyethyl)-5-methyl-pyrrolo[2,3-b]pyrazin-3-yl]methyl]-6-(2,6-dimethylphenyl)-2,2-dioxo-9-oxa-2λ^6-thia-3,5,12,19-tetrazatricyclo[12.3.1.14,8]nonadeca-1(18),4(19),5,7,14,16-hexaen-13-one]
[2]
  EC50: < 1000 nM
  Emax: > 60%

## Cc1cccc(C)c1-c1cc2nc(n1)NS(=O)(=O)c1cccc(c1)C(=O)N(Cc1cnc3cc(C4(C(F)(F)F)CC4)n(C)c3n1)[C@H](CC1(C)CC1)CO2 [IV-75]
[2]
  EC50: 1000 to 3000 nM
  Emax: 30 to 60%

## Cc1cccc(CC(C)C)c1-c1nc2nc(c1C)OC[C@@H](C[C@@H]1CCCCO1)N(Cc1cnc3cc(C(C)(C)C)n(C)c3n1)C(=O)c1cccc(c1)S(=O)(=O)N2 (atropisomer, axis not shown) [IV-81]
[2]
  EC50: < 1000 nM
  Emax: > 60%

## Cc1cccc(C(C)C)c1-c1nc2nc(c1C)OC[C@@H](CC(C)(C)C)N(Cc1cnc3cc(C(C)C)n(C)c3n1)C(=O)c1cccc(c1)S(=O)(=O)N2 (atropisomer, axis not shown) [Compound I-179]
[2]; 18-24 hours
  Emax: > 60%
[2]
  EC50: 3000 to 30000 nM

## Cc1cccc(C)c1-c1cc2nc(n1)NS(=O)(=O)c1cccc(c1)C(=O)N(Cc1cnc3oc(C4(C)CC4)cc3n1)[C@H](C[C@@H]1CCCO1)CO2 [IV-84]
[2]
  EC50: 1000 to 3000 nM
  Emax: > 60%
